Laboratory results: PubChem BioAssay (NCI)
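Grown in 96-well plates, cells were treated for 48 hours with each compound at five concentrations. Insufficient inhibition: endpoint recorded as highest concentration tested. At the TGI there is no net growth.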

Experiments:
Test in all cases: growth of human tumour cells (NCI), 48 h
SF-539 CNS = system: SF-539 CNS
MCF7 breast = system: MCF7 breast
MDA-MB-435 = system: MDA-MB-435
OVCAR-3 ovarian = system: OVCAR-3 ovarian
CCRF-CEM leukemia = system: CCRF-CEM leukemia
PC-3 prostate = system: PC-3 prostate
SR leukemia = system: SR leukemia
A549 NSCLC = system: A549 NSCLC
SK-MEL-28 melanoma = system: SK-MEL-28 melanoma
SF-295 CNS = system: SF-295 CNS
HCT-15 colon = system: HCT-15 colon
UACC-62 melanoma = system: UACC-62 melanoma
CAKI-1 renal = system: CAKI-1 renal
SK-MEL-5 melanoma = system: SK-MEL-5 melanoma
K-562 leukemia = system: K-562 leukemia
COLO 205 colon = system: COLO 205 colon
UACC-257 melanoma = system: UACC-257 melanoma
IGROV1 ovarian = system: IGROV1 ovarian
SNB-75 CNS = system: SNB-75 CNS
SK-MEL-2 melanoma = system: SK-MEL-2 melanoma
NCI/ADR-RES ovarian = system: NCI/ADR-RES ovarian
KM12 colon = system: KM12 colon
NCI-H460 lung = system: NCI-H460 lung
HOP-62 NSCLC = system: HOP-62 NSCLC
OVCAR-5 ovarian = system: OVCAR-5 ovarian
TK-10 renal = system: TK-10 renal
HCT-116 colon = system: HCT-116 colon
DU-145 prostate = system: DU-145 prostate
MALME-3M melanoma = system: MALME-3M melanoma
SN12C renal = system: SN12C renal
RPMI-8226 leukemia = system: RPMI-8226 leukemia
NCI-H23 lung = system: NCI-H23 lung
SK-OV-3 ovarian = system: SK-OV-3 ovarian
HOP-92 NSCLC = system: HOP-92 NSCLC
OVCAR-8 ovarian = system: OVCAR-8 ovarian
HT29 colon = system: HT29 colon
SNB-19 CNS = system: SNB-19 CNS
ACHN renal = system: ACHN renal
BT-549 breast = system: BT-549 breast
SF-268 CNS = system: SF-268 CNS
U251 CNS = system: U251 CNS
SW-620 colon = system: SW-620 colon
HS 578T breast = system: HS 578T breast
MDA-MB-231 breast = system: MDA-MB-231 breast
HCC-2998 colon = system: HCC-2998 colon
A498 renal = system: A498 renal
UO-31 renal = system: UO-31 renal
786-0 renal = system: 786-0 renal
EKVX NSCLC = system: EKVX NSCLC
T-47D breast = system: T-47D breast
MOLT-4 leukemia = system: MOLT-4 leukemia
RXF 393 renal = system: RXF 393 renal
M14 melanoma = system: M14 melanoma
NCI-H226 lung = system: NCI-H226 lung
MDA-N = system: MDA-N
NCI-H522 lung = system: NCI-H522 lung
OVCAR-4 ovarian = system: OVCAR-4 ovarian
HL-60(TB) leukemia = system: HL-60(TB) leukemia

Measured: TGI

CCOC(=O)C(C)c1nc2cc(N3CCOCC3)c(F)cc2[nH]c1=O (stereo not drawn)
> 100 µM: all assays above
